{"source": "patent US12564554B2", "about": "“Co-amorphous forms of beta-lactoglobulin and a drug substance” (DISPERSOME IP APS, priority 2019, dated 2026)", "data": [{"assay": "mDSC measurement of the glass transition temperature (Tg)", "assay_type": "physicochemical", "conditions": "freshly prepared, ball milled (Table 2)", "procedure": "The mDSC thermograms of the samples were collected using a Discovery DSC (TA instruments, New Castle, USA) under a nitrogen gas flow of 50 ml/min. The samples containing Compound A, Compound B and IND were analysed at a heating rate of 2° C./min from 25° C. to 200° C., with an underlying modulation temperature amplitude of 0.2120° C. and a period of 40 s. For the remaining samples the same heating rate, amplitude and period were applied. Samples containing compounds APA, BDQ, RIF and VNX were heated from 25° C. to 250° C., and samples containing Compound RIT were heated from 0° C. to 170° C. A total of 4-8 mg sample powder was filled into aluminium Tzero pans and sealed with an aluminium Tzero lid. The glass transition temperature (Tg) was determined as the midpoint from the reversing heat flow signal.", "units": {"Tg": "°C"}, "values": [{"compound": "CNC(=O)c1ccc(N2C(=S)N(c3cnc(C#N)c(C(F)(F)F)c3)C(=O)C23CCC3)cc1F", "note": "[Pure amorphous APA, Apalutamide]", "Tg": 97.4}, {"compound": "bedaquiline fumarate [Pure amorphous BDQ]", "Tg": 79.4}, {"compound": "CO[C@H]1/C=C/O[C@@]2(C)Oc3c(C)c(O)c4c(O)c(c5c(nc6cc(C)ccn65)c4c3C2=O)NC(=O)/C(C)=C\\C=C\\[C@H](C)[C@H](O)[C@@H](C)[C@@H](O)[C@@H](C)[C@H](OC(C)=O)[C@@H]1C", "note": "[Pure amorphous RIF, rifaximin]", "Tg": 194.4}, {"compound": "CC(C)c1nc(CN(C)C(=O)N[C@H](C(=O)N[C@@H](Cc2ccccc2)C[C@H](O)[C@H](Cc2ccccc2)NC(=O)OCc2cncs2)C(C)C)cs1", "note": "[Pure amorphous RIT, ritonavir]", "Tg": 41.7}]}]}
